{"source": "patent US20190083573A1", "about": "“DESIGNER RECEPTORS FOR […] AND METHODS OF USE THEREOF” (The Board of Trustees of the Leland Stanford Junior …, priority 2016, published 2019)", "key": {"[1]": {"assay": "Effect of other analgesics on the light intensity required for a pain-related response (optical withdrawal testing)", "format": "in vivo", "conditions": "mice, blinded experiments", "description": "(§1) In mice that were co-injected with AAV6-hSyn-HA-hM4D-IRES-mCitrine and AAV6-hSyn-ChR2-YFP optical withdrawal testing was performed 2-3 weeks post injection. Mice were placed on a glass surface and allowed to habituate for 30-45 minutes. A 473 nm laser was connected to a fiber optic cable, and used to illuminate the paw regions of the mice at varying light intensities. Mice responded to the blue light with characteristic pain-signs, engaging in paw withdrawal, shaking, and licking. […] This value was termed the ‘optical withdrawal threshold’. Due to variation in the effective illumination spot, the optical withdrawal threshold was measured in total illuminated output (in mW), rather than in mW/mm^2. Mice were then briefly anesthetized with isoflurane, and injected intra-peritoneally with 100 μl of clozapine-N-oxide (for an effective dose of 10 mg/kg) or 100 μl of saline. Post-injection testing was done in a blinded manner, with optical withdrawal thresholds collected at 60-90 minutes. Data were then unblinded, and statistical significance assessed using the Student's t-test."}, "hM4D(Gi) [2]": {"molecular_target": "T1, hM4D(Gi) (Homo sapiens, UniProt P08173, A203G/Y113C)", "T1 construct": "HA (N); expressed in transfected cells; host or cells: mouse sciatic-nerve primary afferent nociceptors, transduced in vivo with AAV6 under the hSyn promoter", "T1 sequence (P08173 1-479 Y113C/A203G)": "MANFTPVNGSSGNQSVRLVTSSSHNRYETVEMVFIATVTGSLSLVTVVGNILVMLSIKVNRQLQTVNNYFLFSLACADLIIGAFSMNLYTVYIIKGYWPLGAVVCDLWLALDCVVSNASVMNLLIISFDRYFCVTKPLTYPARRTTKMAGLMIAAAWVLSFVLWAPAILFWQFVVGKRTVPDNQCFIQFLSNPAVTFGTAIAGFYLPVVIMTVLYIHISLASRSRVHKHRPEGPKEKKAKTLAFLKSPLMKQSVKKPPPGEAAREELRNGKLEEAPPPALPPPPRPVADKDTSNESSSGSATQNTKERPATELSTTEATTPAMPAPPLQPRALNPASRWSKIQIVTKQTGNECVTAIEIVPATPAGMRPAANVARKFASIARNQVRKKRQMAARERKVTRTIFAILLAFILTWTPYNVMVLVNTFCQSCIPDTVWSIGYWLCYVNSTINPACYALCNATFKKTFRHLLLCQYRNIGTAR", "assay": "Optical withdrawal testing after CNO in hM4D+/ChR2+ mice", "format": "in vivo", "conditions": "10 mg/kg CNO i.p., 60 min after administration, n=5 mice", "description": "(§2) 6-8 week old mice were anesthetized with 2% isoflurane, the thigh region was cleaned and sterilized, and then the sciatic nerve was exposed. A 35 G needle was inserted into the nerve, and 2-5 μl of AAV6-hSyn-HA-hM4D-IRES-mCitrine was injected into the nerve, at the rate of 1 μl/min. The cavity was then closed, analgesics were administered, and the recovery of the mice was observed. In some experiments, mice were co-injected with 3 μl of AAV6-hSyn-ChR2-YFP, to allow for analysis of chemogenetic inhibition of optogenetically evoked pain response.\nas §1, with “Mice were then briefly anesthetized with isoflurane, and injected intra-peritoneally with 100 μl of clozapine-N-oxide (for an effective dose of 10 mg/kg) or 100 μl of saline. Post-injection testing was done in a blinded manner, with optical withdrawal thresholds collected at 60-90 minutes.” left out"}, "hM4D(Gi) [3]": {"molecular_target": "T1, hM4D(Gi)", "assay": "Thermal withdrawal testing (Hargreaves) after intraperitoneal CNO in hM4D(Gi) mice", "format": "in vivo", "conditions": "10 mg/kg CNO i.p.", "description": "as §2\n(§3) Mice were tested 3-5 weeks after intraneural injection. Mice were placed on a Hargreaves apparatus, and allowed to habituate for 1 hour. Thermal withdrawal latencies were then obtained. Mice were then briefly anesthetized with isoflurane, and injected intra-peritoneally with 100 μl of clozapine-N-oxide (for an effective dose of 10 mg/kg) or 100 μl of saline. Post-injection testing was done in a blinded manner, with thermal withdrawal latencies collected at 45-120 minutes post-injection. Data were then unblinded, and statistical significance assessed using the Student's t-test."}, "hM4D(Gi) [4]": {"molecular_target": "T1, hM4D(Gi)", "assay": "Mechanical withdrawal testing (von Frey) after intraperitoneal CNO in mice expressing hM4D", "format": "in vivo", "conditions": "mice expressing hM4D receptor, 10 mg/kg CNO i.p., 60 min after administration, n=10 paws", "description": "as §2\nas §3, with “von Frey” for “Hargreaves”, “Mechanical” for “Thermal”, “thresholds” for “latencies”, “obtained using the up-down method of testing.” for “then obtained.”, “mechanical” for “thermal”"}, "primary afferents [5]": {"test_system": "primary afferents", "conditions": "previously reported optogenetic inhibition of primary afferents; cited from earlier work"}, "primary afferents [6]": {"test_system": "primary afferents", "conditions": "previously observed optogenetic inhibition of thermal perception; cited from earlier work"}}}
{"molecule": "NCC1(CC(=O)O)CCCCC1", "note": "[gabapentin]", "values": [{"measurement": "effect on optical light sensitivity", "setting": "[1]", "result": "strong effects"}]}
{"molecule": "C[N+]1([O-])CCN(C2=Nc3cc(Cl)ccc3Nc3ccccc32)CC1", "note": "[CNO, clozapine-N-oxide]", "values": [{"measurement": "effect size, optical withdrawal threshold", "setting": "hM4D(Gi) [2]", "result": 1.603}, {"measurement": "increase in required light intensity to achieve a pain-related response (optical withdrawal threshold)", "setting": "hM4D(Gi) [2]", "result": 418, "unit": "%"}, {"measurement": "effect size, thermal thresholds", "setting": "hM4D(Gi) [3]; 60 minutes post-injection", "result": 1.903}, {"measurement": "increase in thermal thresholds", "setting": "hM4D(Gi) [3]; 60 minutes post-injection", "result": 61, "unit": "%"}, {"measurement": "effect size, thermal thresholds", "setting": "hM4D(Gi) [3]; 90 minutes post-injection", "result": 2.2245}, {"measurement": "increase in thermal thresholds", "setting": "hM4D(Gi) [3]; 90 minutes post-injection", "result": 54, "unit": "%"}, {"measurement": "effect size, mechanical withdrawal thresholds", "setting": "hM4D(Gi) [4]", "result": 1.3}, {"measurement": "increase in mechanical withdrawal thresholds", "setting": "hM4D(Gi) [4]", "result": 45, "unit": "%"}]}
{"molecule": "NpHR: hyperpolarizing light-activatable polypeptide used for optogenetic inhibition (protein, UniProt P15647 1-291, looked up) Halorhodopsin: MTETLPPVTESAVALQAEVTQRELFEFVLNDPLLASSLYINIALAGLSILLFVFMTRGLDDPRAKLIAVSTILVPVVSIASYTGLASGLTISVLEMPAGHFAEGSSVMLGGEEVDGVVTMWGRYLTWALSTPMILLALGLLAGSNATKLFTAITFDIAMCVTGLAAALTTSSHLMRWFWYAISCACFLVVLYILLVEWAQDAKAAGTADMFNTLKLLTVVMWLGYPIVWALGVEGIAVLPVGVTSWGYSFLDIVAKYIFAFLLLNYLTSNESVVSGSILDVPSASGTPADD", "values": [{"measurement": "effect size of inhibition, mechanical", "setting": "primary afferents [5]", "result": 0.802}, {"measurement": "effect size of inhibition, thermal perception", "setting": "primary afferents [6]", "result": 2.05}]}
